Laboratory results from publication PMC6393295, “Archaeal NSUN6 catalyzes m^5C72 modification on a wide-range of specific tRNAs” (Nucleic Acids Research, 2018).

What was measured:
PhNSun6 (PH1991) [1] = target: T1, PhNSun6 (PH1991) (Pyrococcus horikoshii, UniProt O57712); experiment: X-ray crystal structure of the complex, […] A; type: binding; settings: co-crystallised with 1 mM ligand, pH 6.5, 16 °C; Rossmann-fold cofactor site; no tRNA
T1 construct: full length (domains mapped to residues 1-389); E. coli Rosetta (DE3); 2 chains in P1 crystal
T1 sequence (O57712 1-389): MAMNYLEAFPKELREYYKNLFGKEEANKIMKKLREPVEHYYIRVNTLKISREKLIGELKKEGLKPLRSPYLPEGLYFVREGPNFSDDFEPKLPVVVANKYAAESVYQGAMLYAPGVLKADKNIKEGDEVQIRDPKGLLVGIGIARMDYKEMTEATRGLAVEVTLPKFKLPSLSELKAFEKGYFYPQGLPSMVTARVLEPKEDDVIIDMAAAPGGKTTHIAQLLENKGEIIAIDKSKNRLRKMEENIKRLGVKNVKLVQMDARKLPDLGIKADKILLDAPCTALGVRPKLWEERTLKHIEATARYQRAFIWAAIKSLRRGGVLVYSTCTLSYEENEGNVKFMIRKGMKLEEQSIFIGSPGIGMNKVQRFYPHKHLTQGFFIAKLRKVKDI

PhNSun6 (PH1991) [2] = target: T1, PhNSun6 (PH1991); experiment: X-ray crystal structure of the complex, […] A; type: binding; settings: co-crystallised with 1 mM ligand, pH 6.5, 16 °C, Rossmann-fold cofactor site, no tRNA

SMILES: Nc1ncnc2c1ncn2[C@@H]1O[C@H](CSCC[C@H](N)C(=O)O)[C@@H](O)[C@H]1O [SAH, S-adenosyl-homocysteine]
- X-ray crystal structure of the complex, 2.18 A (PhNSun6 (PH1991) [1]): form the binding pocket for the cofactor SAH, as shown in Figure 5B

SMILES: C[S+](CC[C@H](N)C(=O)O)C[C@H]1O[C@@H](n2cnc3c(N)ncnc32)[C@H](O)[C@@H]1O (stereo partly drawn) [SAM, S-adenosyl-methionine]
- X-ray crystal structure of the complex, 2.50 A (PhNSun6 (PH1991) [2]; methyl donor, also turned over with tRNA at 65 °C, pH 7.5): PhNSun6 complexed with SAM, SFG and SAH

SMILES: Nc1ncnc2c1ncn2[C@@H]1O[C@H](C[C@@H](N)CC[C@H](N)C(=O)O)[C@@H](O)[C@H]1O [SFG, sinefungin]
- X-ray crystal structure of the complex, 2.50 A (PhNSun6 (PH1991) [2]): PhNSun6 complexed with SAM, SFG and SAH
